Consider three molecules from PMC10233092, “Selective Janus kinase 1 inhibition resolves inflammation and restores hair growth offering a viable treatment option for alopecia areata” (Skin Health and Disease, 2023).

One data set in a line: LogD7.4. It counts as physicochemical. The following applies: pH 7.4. The source says: TABLE 2 In vitro and in vivo DMPK properties of Cmpd A, B & C | column: In vitro mouse & physical chemical properties / LogD7.4
The next data set deals with T1, JAK3 (Homo sapiens, UniProt P52333).
T1 sequence (P52333 1-1124): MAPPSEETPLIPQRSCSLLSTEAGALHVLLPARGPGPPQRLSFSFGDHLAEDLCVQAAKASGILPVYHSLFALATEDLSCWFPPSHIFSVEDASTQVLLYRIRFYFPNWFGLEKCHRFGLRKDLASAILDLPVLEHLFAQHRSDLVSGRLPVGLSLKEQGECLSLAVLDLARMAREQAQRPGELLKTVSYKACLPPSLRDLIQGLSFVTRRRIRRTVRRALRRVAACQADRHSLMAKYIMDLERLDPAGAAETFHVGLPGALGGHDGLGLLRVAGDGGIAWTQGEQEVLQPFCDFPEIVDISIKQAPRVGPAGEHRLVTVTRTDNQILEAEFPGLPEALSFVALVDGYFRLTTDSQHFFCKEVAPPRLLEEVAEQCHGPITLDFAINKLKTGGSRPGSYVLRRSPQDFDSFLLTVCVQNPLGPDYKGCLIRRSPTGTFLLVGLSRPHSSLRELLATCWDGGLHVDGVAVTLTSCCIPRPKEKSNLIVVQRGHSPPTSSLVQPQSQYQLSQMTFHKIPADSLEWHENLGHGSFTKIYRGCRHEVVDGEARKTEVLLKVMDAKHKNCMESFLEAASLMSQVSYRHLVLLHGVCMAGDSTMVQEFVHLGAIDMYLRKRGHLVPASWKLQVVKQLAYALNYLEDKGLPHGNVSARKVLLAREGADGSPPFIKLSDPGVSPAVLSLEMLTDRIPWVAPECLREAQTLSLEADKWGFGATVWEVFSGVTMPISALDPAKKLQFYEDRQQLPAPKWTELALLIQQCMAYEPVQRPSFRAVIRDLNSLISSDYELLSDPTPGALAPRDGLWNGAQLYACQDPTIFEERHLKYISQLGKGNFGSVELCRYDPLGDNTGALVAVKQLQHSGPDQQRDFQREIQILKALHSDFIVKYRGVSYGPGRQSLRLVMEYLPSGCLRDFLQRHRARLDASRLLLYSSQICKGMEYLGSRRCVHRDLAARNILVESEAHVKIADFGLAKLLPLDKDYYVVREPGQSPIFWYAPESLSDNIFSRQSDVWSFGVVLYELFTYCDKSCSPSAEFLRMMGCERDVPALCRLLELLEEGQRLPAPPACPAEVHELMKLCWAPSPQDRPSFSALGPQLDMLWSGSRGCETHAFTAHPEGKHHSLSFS
The experiment in a line: JAK3 kinase inhibition, Calliper assay. The following applies: physiological ATP concentration of 5 mM. It counts as biochemical.

A further data set deals with JAK1 (Homo sapiens, UniProt P23458). Briefly: JAK1 kinase inhibition, Calliper assay. It counts as biochemical. The following applies: physiological ATP concentration of 5 mM.
Sequence of JAK1 (P23458 whole entry, species assumed): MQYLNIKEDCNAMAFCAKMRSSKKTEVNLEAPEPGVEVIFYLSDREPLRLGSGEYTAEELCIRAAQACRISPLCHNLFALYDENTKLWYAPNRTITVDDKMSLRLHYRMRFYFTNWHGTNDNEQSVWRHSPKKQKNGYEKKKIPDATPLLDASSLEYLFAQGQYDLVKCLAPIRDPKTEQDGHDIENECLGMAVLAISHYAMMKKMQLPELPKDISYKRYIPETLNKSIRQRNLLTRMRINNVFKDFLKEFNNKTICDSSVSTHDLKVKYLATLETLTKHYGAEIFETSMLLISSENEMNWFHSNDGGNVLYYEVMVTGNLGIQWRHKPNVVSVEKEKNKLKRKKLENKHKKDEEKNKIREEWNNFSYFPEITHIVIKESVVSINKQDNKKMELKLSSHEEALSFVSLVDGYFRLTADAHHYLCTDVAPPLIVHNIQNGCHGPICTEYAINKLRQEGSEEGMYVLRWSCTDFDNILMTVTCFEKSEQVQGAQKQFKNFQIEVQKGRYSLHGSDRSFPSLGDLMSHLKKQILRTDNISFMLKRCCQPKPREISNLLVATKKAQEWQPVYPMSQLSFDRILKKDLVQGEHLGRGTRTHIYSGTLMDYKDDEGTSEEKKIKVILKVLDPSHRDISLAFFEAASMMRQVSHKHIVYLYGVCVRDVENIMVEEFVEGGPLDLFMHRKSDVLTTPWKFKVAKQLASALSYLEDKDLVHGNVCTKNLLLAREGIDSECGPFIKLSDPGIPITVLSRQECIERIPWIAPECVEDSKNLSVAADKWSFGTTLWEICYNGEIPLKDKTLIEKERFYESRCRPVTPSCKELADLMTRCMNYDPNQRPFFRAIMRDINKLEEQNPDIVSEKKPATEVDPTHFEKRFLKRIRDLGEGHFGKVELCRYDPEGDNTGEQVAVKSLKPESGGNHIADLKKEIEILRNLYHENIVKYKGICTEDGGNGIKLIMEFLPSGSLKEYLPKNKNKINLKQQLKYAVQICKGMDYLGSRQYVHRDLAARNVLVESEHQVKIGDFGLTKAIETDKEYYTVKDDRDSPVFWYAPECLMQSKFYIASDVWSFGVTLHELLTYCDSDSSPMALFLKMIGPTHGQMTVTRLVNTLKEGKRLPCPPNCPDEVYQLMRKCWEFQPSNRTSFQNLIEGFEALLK
The test system of data set [1] is C3H/HeJ mouse model of AA. Briefly: Skin histopathology and hair follicle analysis in AA mice. It counts as in vivo. The settings on record: for Follicle width / Number of hair follicles per section (hypodermal): individual mice and Mean; for skin inflammation, result in words: AA mice, oral daily servings (systemic exposure). On the procedure: A 1 cm^2 area of skin was excised from the right dorsal surface and fixed in 10% neutral buffered formalin for 24 h before processing and embedding in paraffin wax according to standard procedures. Vertical sectioning was chosen to allow for optimal detection of inflammatory cells whilst enabling follicular counts. 3 μm longitudinal sections were cut and stained with haematoxylin and eosin for histopathological analysis. Skin sections were scanned using an Aperio Scanscope. CD8 and NKG2D in situ hybridization (ISH) was carried out using the RNAScope technique[48] according to the manufacturer's protocols. Briefly, tissue sections were deparaffinised and incubated with epitope retrieval solution 2 for 15 min at 88°C followed by ACD protease for 10 min before hybridization with probe Mm‐Klrk1 (ACD, Cat.No.430808) and probe Mm‐Cd8a‐C2 (ACD, Cat.No. 401688‐C2) or duplex negative control probes Mm‐DapB (ACD, Cat.No. 320758). Bound probe was visualized following amplification with RNAScope 2.5 LS Duplex Reagent Kit‐(RED/BROWN) (ACD Cat.No. 322440). Staining was visualized by light microscopy. Number of hair follicles and hair follicle width were analyzed using ImageJ software edition ImageJ2. Images were imported using the bio‐format importer plug in. The number of follicles were counted using the cell counter plugin. All follicles on all sections in the dermal fat layer were counted. Follicle width was calculated with use of the circle tool to capture follicle area and from it calculate the width. All follicles on all sections in the dermal fat layer were included in the width analysis.

Setting [2] is: 8w off Tx (4 weeks oral treatment, then 8 weeks off).
The mark [3] stands for this setting: 8w off Tx (4 weeks oral treatment, then 8 weeks off), mean.
Where [4] appears, read: Systemic JAK1i, after 4 weeks oral treatment.
[5] abbreviates: Systemic JAK1i, after 4 weeks oral treatment, mean.

Several values for one entry are separate records, joined by “and”; a condition that tells them apart may be missing. Identical values can stand only once.

In “LogD7.4”, `Cc1cnc(Nc2cccnc2F)nc1-c1c[nH]c2c(NC(=O)[C@@H](C)N3CCN(C)CC3)cccc12` [Cmpd A] yielded a logD of 2.9. The values for the IC50 at JAK3 and against JAK1 were over 30000 nM and 27 nM, respectively. In addition, the Follicle width in data set [1] (setting [2]) was 36 μm and 26 μm and 38 μm and 31 μm and 35 μm; in data set [1] (setting [3]) it was 32 μm; in data set [1] (setting [4]), 28 μm and 26 μm and 29 μm and 25 μm; in data set [1] (setting [5]), 27 μm. Also, the “Number of hair follicles per section (hypodermal)” value was 51 and 595 and 35 and 9 and 44 and 48 in data set [1] (setting [2]); 130 in data set [1] (setting [3]); 150 and 542 and 263 and 363 and 20 and 288 in data set [1] (setting [4]); 271 in data set [1] (setting [5]). The “skin inflammation, result in words” value in data set [1] was “resolution of inflammation in the skin”.
Molecule `Cc1cnc(Nc2cc(N3C[C@@H]4C[C@H]3CN4C)cnc2F)nc1N[C@H](C)[C@H](C)CO` [Cmpd B, (2S,3R)-3-{[2-({2-fluoro-5-[(1S,4S)-5-methyl-2,5-diazabicyclo[2.2.1]heptan-2-yl]pyridin-3-yl}amino)-5-methylpyrimidin-4-yl]amino}-2-methylbutan-1-ol] showed a logD in “LogD7.4” of 1.5. The 50% inhibitory concentration (IC50) at JAK3 is over 30000 nM; at JAK1, 9.3 nM.
In “LogD7.4”, `COCC(C(=O)Nc1cccc2c(-c3nc(Nc4cccc(S(C)(=O)=O)c4F)ncc3F)c[nH]c12)N1CCN(C)CC1` (stereo not shown) [Cmpd C] registered a logD of 2.6. The IC50 at JAK3 is over 30000 nM; against JAK1, under 3 nM. Also, in data set [1], the “skin inflammation, result in words” value was “resolved inflammation”.
